Experimental data as given in US20090130194A1, “Methods of Treating Cancer with High Potency Lipid-Based Platinum Compound Formulations Administered Intravenously” (Transave, Inc., priority 2005, published 2009).

Assays:
[1] = Nephrotoxicity: blood urea nitrogen (BUN); format: in vivo; details: MTD
Description: Nephrotoxicity. ICR mice, 7 weeks old, female, were divided into 4 groups with 3 to 4 mice in each. […] Four days after the injection, the mice were euthanized with Nembutal ip. The blood was drawn and the serum was isolated. The blood urea nitrogen (BUN) was quantitatively measured with a calorimetric method at Antech Diagnostics. Organs including duodenum, heart, kidney, liver, lung, and spleen were resected from the mice and fixed with 10% buffered Formalin. The fixed tissues were processed with standard procedure for H and E staining. A pathology expert Dr. Carman Tornos at the Memorial Sloan-Kettering Cancer Center examined kidney tissues and gave a toxicity grade to each kidney tissue sample. The grading was based on the general pathology guidelines for kidney toxicity.

[2] = Pharmacokinetics and organ distribution of ip and iv injected L-CDDP and CDDP (platinum by ICP-MS); format: in vivo, ICR mice; details: 8 mg/kg
Description: Pharmacokinetics and organ distribution in animals of ip and iv injected lipid-complexed cisplatin and cisplatin (Part II). Sixty ICR mice (female, 7 weeks old) were divided into 4 groups. They received intraperitoneal or intravenous injection of L-CDDP or CDDP, separately. The dose was 12 mg/kg for ip L-CDDP and 8 mg/kg for the rest of treatment groups. At each designed time point, three to four mice were anaesthetized with 70 mg/kg of Nembutal ip (e.g., 3, 20, and 40 min, and 2, 8, 24, 48, and 72 h). […] Organs including liver, lung, and spleen were resected from the mice. The organ samples were homogenized in distilled water (4-fold of the sample weight) and digested with nitric acid. The platinum concentration in each sample was measured by Inductively Coupled Plasma-Mass Spectrometer (ICP-MS). The pharmacokinetics profiles (FIGS. 4, 5, and 6, all Y-axes are concentration of μg platinum in one gram of tissue or fluid per mg of injected dose) and parameters (Table 2) of each formulation were simulated and calculated.

In the case of N.N.[Cl][Pt][Cl] [CDDP, cis diamminedichloroplatinum], the “BUN level change (in words)” value ([1]; either route) is reported as “increase”, the “BUN level increase compared with normal controls” value ([1]; ip, 4 days after injection, p=0.04) is reported as 2.1 fold and the “AUC, Liver” value [2] is reported as 19.96 µg·h/g/µg. For the same compound, the “AUC, Lung” value [2] was 5.58 µg·h/g/µg, the “AUC, Spleen” value [2] was 8.11 µg·h/g/µg and the “Cmax, Liver” value [2] was 0.74 µg/g/µg. The “Cmax, Lung” value [2] was 0.28 µg/g/µg.
